Measured values from patent US9315503B2, “Kinase inhibitors” (CHIESI FARMACEUTICI S.p.A., priority 2011, dated 2016).
Where a name gives a salt, the structure may show the parent alone.

Key:
p38alpha = target: T1, p38alpha (Homo sapiens, UniProt Q16539); assay: P38Alpha enzyme inhibition assay (Alphascreen kinase activity assay); type: biochemical; conditions: 100 pM p38alpha, 250 μM ATP, 2 hours pre-incubation at 25° C., read-out: p38α inhibition (IC50 values)
T1 construct: purchased Invitrogen PV3304
Procedure, shortened: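 AlphaScreen read-out: after an EDTA stop, an anti-phospho-ATF2 antibody with Protein A acceptor and donor beads measured substrate phosphorylation. Compounds sat 2 h at 25°C with 100 pM p38α and 0.3 µg/ml ATF-2 fusion protein (pH 7.5, 1% DMSO) before 250 µM ATP was added for 1 h. IC50 from dose-response.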

[1] = test system: LPS-stimulated TNFα release from PBMCs; assay: LPS-stimulated PBMC TNFα release assay; type: cell-based; conditions: inhibition of TNFα release, human PBMCs, LPS 10 ng/ml, 18 h, ELISA, read-out: p38α inhibition (IC50 values)
Procedure, shortened: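 TNFα in supernatants measured by ELISA after 18 h LPS (10 ng/ml) challenge of human PBMCs given 1 h compound pretreatment at 37 °C in medium with 1% FBS. Percent inhibition versus control release fitted to dose-response curves for IC50; at least three independent runs.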

T1 sequence (Q16539 whole entry): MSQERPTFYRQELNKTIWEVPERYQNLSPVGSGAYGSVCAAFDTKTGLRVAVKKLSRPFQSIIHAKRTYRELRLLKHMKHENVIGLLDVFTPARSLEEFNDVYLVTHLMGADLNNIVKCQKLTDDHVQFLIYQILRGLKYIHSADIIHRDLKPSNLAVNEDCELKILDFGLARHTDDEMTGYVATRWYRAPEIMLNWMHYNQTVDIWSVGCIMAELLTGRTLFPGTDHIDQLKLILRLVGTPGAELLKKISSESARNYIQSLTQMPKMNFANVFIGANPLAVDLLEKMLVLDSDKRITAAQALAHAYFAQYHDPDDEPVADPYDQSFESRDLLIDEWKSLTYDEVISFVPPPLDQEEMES

Row | SMILES | IC50 (p38alpha) | IC50 [1]
1 | Cc1ccc(-n2nc(C(C)(C)C)cc2NC(=O)N[C@H]2CC[C@@H](Oc3ccc(CN4CCOCC4)nc3)c3ccccc32)cc1 [Example 21, 1-(5-tert-Butyl-2-p-tolyl-2H-pyrazol-3-yl)-3-[(1S,4R)-4-(6-morpholin-4-ylmethyl-pyridin-3-yloxy)-1,2,3,4-tetrahydro-naphthalen-1-yl]-urea] | 10 to 100 nM | 10 to 100 nM
2 | COCC(=O)Nc1cc(O[C@H]2CC[C@H](NC(=O)Nc3cc(C(C)(C)C)nn3-c3ccc(C)cc3)c3ccccc32)ccn1 [Example 10, N-(4-{(1S,4S)-4-[3-(5-tert-Butyl-2-p-tolyl-2H-pyrazol-3-yl)-ureido]-1,2,3,4-tetrahydro-naphthalen-1-yloxy}-pyridin-2-yl)-2-methoxy-acetamide] | < 10 nM | < 10 nM
3 | CN(C)CCOc1cccc(-n2nc(C(C)(C)C)cc2NC(=O)N[C@H]2CC[C@@H](Oc3ccc4nnc(N5C6CCCC5CC6)n4c3)c3ccccc32)c1 [Example 122, 1-{(1S,4R)-4-[3-(8-Aza-bicyclo[3.2.1]oct-8-yl)-[1,2,4]triazolo[4,3-a]pyridin-6-yloxy]-1,2,3,4-tetrahydro-naphthalen-1-yl}-3-{5-tert-butyl-2-[3-(2-dimethylamino-ethoxy)-phenyl]-2H-pyrazol-3-yl}-urea formate salt] | < 10 nM | < 10 nM
4 | CN(C)CCOc1cccc(-n2nc(C(C)(C)C)cc2NC(=O)N[C@H]2CC[C@@H](Oc3ccc4nnc(N5CCCCC5)n4c3)c3ccccc32)c1 [Example 40, 1-{5-tert-Butyl-2-[3-(2-dimethylamino-ethoxy)-phenyl]-2H-pyrazol-3-yl}-3-[(1S,4R)-4-(3-piperidin-1-yl-[1,2,4]triazolo[4,3-a]pyridin-6-yloxy)-1,2,3,4-tetrahydro-naphthalen-1-yl]-urea] | < 10 nM | < 10 nM
5 | Cc1ccc(-n2nc(C(C)(C)CO)cc2NC(=O)N[C@H]2CC[C@@H](Oc3ccc4nnc(N5CCCCC5)n4c3)c3ccccc32)cc1 [Example 36, 1-[5-(2-Hydroxy-1,1-dimethyl-ethyl)-2-p-tolyl-2H-pyrazol-3-yl]-3-[(1S,4R)-4-(3-piperidin-1-yl-[1,2,4]triazolo[4,3-a]pyridin-6-yloxy)-1,2,3,4-tetrahydro-naphthalen-1-yl]-urea] | < 10 nM | < 10 nM
6 | C[C@H]1CCCCN1c1nnc2ccc(O[C@@H]3CC[C@H](NC(=O)Nc4cc(C(C)(C)C)nn4-c4cccc(CN5CCN(C)CC5)c4)c4ccccc43)cn12 [Example 98, 1-{5-tert-Butyl-2-[3-(4-methyl-piperazin-1-ylmethyl)-phenyl]-2H-pyrazol-3-yl}-3-{(1S,4R)-4-[3-((S)-2-methyl-piperidin-1-yl)-[1,2,4]triazolo[4,3-a]pyridin-6-yloxy]-1,2,3,4-tetrahydro-naphthalen-1-yl}-urea formate salt] | < 10 nM | < 10 nM
7 | COc1c(NC(=O)N[C@H]2CC[C@@H](Oc3ccc4nnc([C@@H]5CCCN5C)n4c3)c3ccccc32)cc(C(C)(C)C)cc1NS(C)(=O)=O [Example 109, N-[5-tert-Butyl-2-methoxy-3-(3-{(1S,4R)-4-[3-((S)-1-methyl-pyrrolidin-2-yl)-[1,2,4]triazolo[4,3-a]pyridin-6-yloxy]-1,2,3,4-tetrahydro-naphthalen-1-yl}-ureido)-phenyl]-methanesulfonamide formate salt] | < 10 nM | < 10 nM
8 | Cc1ccc(-n2nc(C(C)(C)C)cc2NC(=O)N[C@H]2CC[C@@H](Oc3ccc4nnc(N5CCC[C@@H](CO)C5)n4c3)c3ccccc32)cc1 [Example 77, 1-(5-tert-Butyl-2-p-tolyl-2H-pyrazol-3-yl)-3-{(1S,4R)-4-[3-((R)-3-hydroxymethyl-piperidin-1-yl)-[1,2,4]triazolo[4,3-a]pyridin-6-yloxy]-1,2,3,4-tetrahydro-naphthalen-1-yl}-urea] | < 10 nM | < 10 nM
9 | C[C@@H]1CCC[C@H](C)N1c1nnc2ccc(O[C@@H]3CC[C@H](NC(=O)Nc4cc(C(C)(C)C)nn4-c4cccc(OCCN(C)C)c4)c4ccccc43)cn12 [Example 96, 1-{5-tert-Butyl-2-[3-(2-dimethylamino-ethoxy)-phenyl]-2H-pyrazol-3-yl}-3-{(1S,4R)-4-[3-(cis-2,6-dimethyl-piperidin-1-yl)-[1,2,4]triazolo[4,3-a]pyridin-6-yloxy]-1,2,3,4-tetrahydro-naphthalen-1-yl}-urea formate salt] | < 10 nM | < 10 nM
10 | Cc1ccc(-n2nc(C(C)(C)C)cc2NC(=O)N[C@H]2CC[C@@H](Oc3ccc4nnc(N5CCCN(C)CC5)n4c3)c3ccccc32)cc1 [Example 69, 1-(5-tert-Butyl-2-p-tolyl-2H-pyrazol-3-yl)-3-{(1S,4R)-4-[3-(4-methyl-[1,4]diazepan-1-yl)-[1,2,4]triazolo[4,3-a]pyridin-6-yloxy]-1,2,3,4-tetrahydro-naphthalen-1-yl}urea] | < 10 nM | < 10 nM
11 | CC(C)(C)c1cc(NC(=O)N[C@H]2CC[C@@H](Oc3ccc4nnc(N5CCCCC5)n4c3)c3ccccc32)n(-c2ccc(CO)cc2)n1 [Example 34, 1-[5-tert-Butyl-2-(4-hydroxymethyl-phenyl)-2H-pyrazol-3-yl]-3-[(1S,4R)-4-(3-piperidin-1-yl-[1,2,4]triazolo[4,3-a]pyridin-6-yloxy)-1,2,3,4-tetrahydro-naphthalen-1-yl]-urea] | < 10 nM | < 10 nM
12 | CN1CCC[C@H]1c1nnc2ccc(O[C@@H]3CC[C@H](NC(=O)Nc4cc(C(C)(C)C)nn4-c4cccc(CO)c4)c4ccccc43)cn12 [Example 31, 1-[5-tert-Butyl-2-(3-hydroxymethyl-phenyl)-2H-pyrazol-3-yl]-3-{(1S,4R)-4-[3-((S)-1-methyl-pyrrolidin-2-yl)-[1,2,4]triazolo[4,3-a]pyridin-6-yloxy]-1,2,3,4-tetrahydro-naphthalen-1-yl}-urea] | < 10 nM | < 10 nM
13 | CC(C)(C)c1cc(NC(=O)N[C@H]2CC[C@@H](Oc3ccc4nnc(N5CCCCC5)n4c3)c3ccccc32)n(-c2cccc(CO)c2)n1 [Example 29, 1-[5-tert-Butyl-2-(3-hydroxymethyl-phenyl)-2H-pyrazol-3-yl]-3-[(1S,4R)-4-(3-piperidin-1-yl-[1,2,4]triazolo[4,3-a]pyridin-6-yloxy)-1,2,3,4-tetrahydro-naphthalen-1-yl]-urea] | < 10 nM | < 10 nM

More lines, main results first:

Row | IC50 (p38alpha) | SMILES | IC50 [1]
14 | < 10 nM | Cc1ccc(-n2nc(C(C)(C)C)cc2NC(=O)N[C@H]2CC[C@@H](Oc3ccc4nnc([C@@H]5CC(C)(C)CN5C)n4c3)c3ccccc32)cc1 [Example 87, 1-(5-tert-Butyl-2-p-tolyl-2H-pyrazol-3-yl)-3-{(1S,4R)-4-[3-((S)-1,4,4-trimethyl-pyrrolidin-2-yl)-[1,2,4]triazolo[4,3a]pyridin-6-yloxy]-1,2,3,4-tetrahydro-naphthalen-1-yl}-urea] | < 10 nM
15 | < 10 nM | Cc1ccc(-n2nc(C(C)(C)C)cc2NC(=O)N[C@H]2CC[C@@H](Oc3ccc4nnc(N5CCC[C@@H](O)C5)n4c3)c3ccccc32)cc1 [Example 64, 1-(5-tert-Butyl-2-p-tolyl-2H-pyrazol-3-yl)-3-{(1S,4R)-4-[3-((R)-3-hydroxy-piperidin-1-yl)-[1,2,4]triazolo[4,3-a]pyridin-6-yloxy]-1,2,3,4-tetrahydro-naphthalen-1-yl}-urea] | < 10 nM
16 | < 10 nM | Cc1ccc(-n2nc(C(C)(C)C)cc2NC(=O)N[C@H]2CC[C@@H](Oc3ccc4nnc(N5CC[C@H](O)C5)n4c3)c3ccccc32)cc1 [Example 26, 1-(5-tert-Butyl-2-p-tolyl-2H-pyrazol-3-yl)-3-{(1S,4R)-4-[3-((S)-3-hydroxy-pyrrolidin-1-yl)-[1,2,4]triazolo[4,3-a]pyridin-6-yloxy]-1,2,3,4-tetrahydro-naphthalen-1-yl}-urea] | < 10 nM
17 | < 10 nM | Cc1ccc(-n2nc(C(C)(C)C)cc2NC(=O)N[C@H]2CC[C@@H](Oc3ccc4nnc(N5CCC[C@H](O)C5)n4c3)c3ccccc32)cc1 [Example 63, 1-(5-tert-Butyl-2-p-tolyl-2H-pyrazol-3-yl)-3-{(1S,4R)-4-[3-((S)-3-hydroxy-piperidin-1-yl)-[1,2,4]triazolo[4,3-a]pyridin-6-yloxy]-1,2,3,4-tetrahydro-naphthalen-1-yl}-urea] | < 10 nM
18 | < 10 nM | Cc1ccc(-n2nc(C(C)(C)C)cc2NC(=O)N[C@H]2CC[C@@H](Oc3ccc4nnc([C@]5(C)CCCN5C)n4c3)c3ccccc32)cc1 [Example 47, 1-(5-tert-Butyl-2-p-tolyl-2H-pyrazol-3-yl)-3-{(1S,4R)-4-[3-((S)-1,2-dimethyl-pyrrolidin-2-yl)-[1,2,4]triazolo[4,3-a]pyridin-6-yloxy]-1,2,3,4-tetrahydro-naphthalen-1-yl}-urea] | < 10 nM
19 | < 10 nM | CCN1CCC[C@H]1c1nnc2ccc(O[C@@H]3CC[C@H](NC(=O)Nc4cc(C(C)(C)C)nn4-c4ccc(C)cc4)c4ccccc43)cn12 [Example 61, 1-(5-tert-Butyl-2-p-tolyl-2H-pyrazol-3-yl)-3-{(1S,4R)-4-[3-((S)-1-ethyl-pyrrolidin-2-yl)-[1,2,4]triazolo[4,3-a]pyridin-6-yloxy]-1,2,3,4-tetrahydro-naphthalen-1-yl}-urea] | < 10 nM
20 | < 10 nM | CN1CCC[C@H]1c1nnc2ccc(O[C@@H]3CC[C@H](NC(=O)Nc4cc(C(C)(C)C)nn4-c4ccc(O)cc4)c4ccccc43)cn12 [Example 73, 1-[5-tert-Butyl-2-(4-hydroxy-phenyl)-2H-pyrazol-3-yl]-3-{(1S,4R)-4-[3-((S)-1-methyl-pyrrolidin-2-yl)-[1,2,4]triazolo[4,3-a]pyridin-6-yloxy]-1,2,3,4-tetrahydro-naphthalen-1-yl}-urea] | < 10 nM
